# Test results reported in patent US10632127B2, “Targeted notch pathway inhibitors” (Hoffmann-La Roche Inc., priority 2015, dated 2020).
# Tested on: EC219 cells
# Assay: Extracellular release of the γ-secretase inhibitor from prodrugs by EC219 endothelial cells
# Assay type: in vitro ADME, rat
# Details: HEK293, 215/F2, HK2 and EC219 cells, 20 μM in PBS, 19 h
# Experimental: FIG. 2A. Extracellular release of amine-SecrI (11a) metabolites for α-Glu- and γ-Glu-secretase inhibitor prodrugs. The prodrugs were added to the cells for 19 h, then the supernatants were harvested and analyzed for SecrI (8), amine-SecrI (11a), the prodrugs 13a, 13b, 15a, 15b and (for 13a, 15a) also the correponding deacetylated metabolites.
# Cpd added: 20 μM in PBS, 19 h incubation. SecrI (8) is stable when added to cells for 19 h; free SecrI (8) was never detected from any prodrug.
# The preparation and characterization of rat brain-derived EC219 endothelial cells have been described in Juillerat-Jeanneret, L. et al. In Vitro Cell. Dev. Biol. 1992, 28A, 537-543. These cells express high levels of APA and γ-GT activities and can be used for determining kinetics in living cells, and were chosen as APA- and γ-GT-positive representative cell models. EC219 cells were grown in DMEM medium containing 1 g/l glucose, 10% heat-inactivated fetal calf serum (FCS, EuroClone, UK) supplemented with 100 U/mL penicillin and 100 μg/mL streptomycin (P/S) on uncoated cell culture plastic ware. The HEK293 and HK2 human kidney cells are available from the ATCC (American Tissue Culture Collection, Manassas, Va., USA). HEK293 cells were grown on uncoated cell culture plastic ware in Iscove modified Dulbecco medium (IMDM, Life Technologies) containing 10% FCS and P/S. HK2 cells were grown on uncoated cell culture plastic ware in DMEM/F-12 GlutaMAX medium (Gibco) containing 5% FCS, P/S, 1% ITS (1.0 mg/ml bovine insulin, 0.55 mg/ml human transferrin and 0.5 μg/ml sodium selenite, Sigma-Aldrich) and 5 ng/ml hydrocortisone. […] Then 75 μl of supernatant from each well was removed and the luciferase activity was determined by adding 25 μl of Steady-Glo luciferase assay reagent (Promega).
# A first screen of the different γ-secretase prodrugs was performed in vitro to determine the cleavage rate of each compound and ex-vivo in mouse kidney tissues. Extracellular release of the γ-secretase inhibitor from prodrugs by human kidney cells (HEK293, HEK293-derived Notch-reporter 215/F2 cells28,39 and HK2 cells) as well as the rat brain-derived EC219 endothelial cells which express very high levels of APA and γ-GT activities were evaluated for liberating active inhibitors SecrI (8) or amine-SecrI (11a) (FIG. 2A).
# All samples were analyzed using protein precipitation followed by LC-MS/MS analysis. […] One μL of the supernatant was analyzed by LC/MS. […]
smiles,measurement,value
"C[C@H]1Oc2ccc(F)cc2N(CCO)C(=O)[C@H]1NC(=O)[C@@](C)(O)C(=O)NCC(F)(F)C(F)(F)F [Compound 8, N-[(6R,7S)-2-Fluoro-9-(2-hydroxy-ethyl)-6-methyl-8-oxo-6,7,8,9-tetrahydro-5-oxa-9-aza-benzocyclohepten-7-yl]-2-(S)-hydroxy-2-methyl-N′-(2,2,3,3,3-pentafluoro-propyl)-malonamide]",stability when added to cells,stable
"CC(=O)N[C@@H](CCC(=O)NCCNC(=O)OCCN1C(=O)[C@@H](NC(=O)[C@@](C)(O)C(=O)NCC(F)(F)C(F)(F)F)[C@@H](C)Oc2ccc(F)cc21)C(=O)O [Compound 13a, (S)-2-acetamido-5-(2-((2-((2R,3S)-7-fluoro-3-((S)-2-hydroxy-2-methyl-3-oxo-3-(2,2,3,3,3-pentafluoropropylamino)propanamido)-2-methyl-4-oxo-3,4-dihydrobenzo[b][1,4]oxazepin-5(2H)-yl)ethoxy)carbonylamino)ethylamino)-5-oxopentanoic acid]",hydrolysis by γ-GT,not hydrolyzed by γ-GT
"CC(=O)N[C@@H](CCC(=O)O)C(=O)NCCNC(=O)OCCN1C(=O)[C@@H](NC(=O)[C@@](C)(O)C(=O)NCC(F)(F)C(F)(F)F)[C@@H](C)Oc2ccc(F)cc21 [Compound 15a, (S)-4-acetamido-5-(2-((2-((2R,3S)-7-fluoro-3-((S)-2-hydroxy-2-methyl-3-oxo-3-(2,2,3,3,3-pentafluoropropylamino)propanamido)-2-methyl-4-oxo-3,4-dihydrobenzo[b][1,4]oxazepin-5(2H)-yl)ethoxy)carbonylamino)ethylamino)-5-oxopentanoic acid]",substrate for APA,not a substrate for this enzyme
